# From patent US20240285705A1, “AQUEOUS EXTRACTION OF CANNABINOIDS” (Curaleaf, Inc., priority 2023, published 2024)
# Assay: Solubilization of cannabinoids in NaOH and KOH solutions
# Type: physicochemical
# Description: Concentration Selection: NaOH and KOH solutions having concentrations ranging from 0M to 2M were prepared and tested for their ability to solubilize D9THCA and CBDA. […] All forms of cannabinoids were extracted using NaOH and KOH. It was also determined that neutral cannabinoids were removed from the plant to a much less extent during base extraction.
SMILES,"Solubility (NaOH and KOH solutions, concentrations ranging from 0M to 2M)",Degradation by strong base (NaOH/KOH solution above 0.3M)
"C=C(C)[C@@H]1CCC(C)=C[C@H]1c1c(O)cc(CCCCC)c(C(=O)O)c1O [CBDA, cannabidolic acid]",higher than D9THC,
"CCCCCc1cc2c(c(O)c1C(=O)O)[C@@H]1C=C(C)CC[C@H]1C(C)(C)O2 [D9THCA, tetrahydrocannabinolic acid]",,begins to noticeable degrade
